Molecules are shown by their SMILES.

The assay relates to PGE2 production from IL-1β-stimulated MG-63 cells. Nature of the assay: Suppressing action on PGE2 production from IL-1β-stimulated MG-63 cells. The format is cell-based. Particulars: Homo sapiens, IL-1β 1 ng/ml, 18 hours, read-out: PGE2 production suppression ratio. The text has this:
1. Suppressing Action on PGE2 Production from IL-1β-Stimulated MG-63 Cells (1) Method for Measurement
An action of suppressing PGE2 production caused by interleukin (IL) 1β as an inflammatory stimulant was studied by the following method. Cells of MG-63, which is a human osteosarcoma cell line (purchased from Dainippon Pharmaceutical), were suspended in EMEM medium (GIBCO) containing 10% fetal bovine serum (BioFluid), and then inoculated to each well of 96-well culture plate at a density of 2×10^4 cells/well and cultured overnight. The medium was changed to EMEM medium containing 0.5% fetal bovine serum, and then a test compound was added with each well. Human interleukin-1β (ENDOGEN) was further added as an inflammatory stimulant at a final concentration of 1 ng/ml. The cells were further cultured for 18 hours. The culture supernatant was collected, and the PGE2 concentration in the culture supernatant was measured by using EIA kit (CAYMAN). By using a well which was not added with the stimulant as a negative control and a well which was added only with the stimulant as a positive control, suppression ratios on PGE2 production were calculated from produced amounts of PGE2 in the well added with the test compound using the following equation. PGE2 production suppression ratio=[1−(C−B)/(A−B)]×100 • A: PGE2 production amount of positive control • B: PGE2 production amount of negative control • C: PGE2 production amount in well added with test compound
As for `O=C(O)CCc1ccc(OCc2cccc(F)c2)c(-c2ccc3[nH]ccc3c2)c1` [Compound 144, 3-[4-(3-fluorophenylmethyloxy)-3-(1H-indol-5-yl)phenyl]propionic acid], the inhibition at 0.4 µM is not below 50%. The value for `O=C(O)CCc1ccc(OCc2ccccc2C(F)(F)F)c(-c2ccc3[nH]ccc3c2)c1` [Compound 170, 3-{3-(1H-indol-5-yl)-4-[2-(trifluoromethyl)phenylmethyloxy]-phenyl}propionic acid] was not below 50%; that for `O=C(O)CCc1ccc(OCc2ccc(C(F)(F)F)cc2)c(-c2ccc3[nH]ccc3c2)c1` [Compound 172, 3-{3-(1H-indol-5-yl)-4-[4-(trifluoromethyl)phenylmethyloxy]-phenyl}propionic acid] was not below 50%.

As to `Cc1cc(C)cc(COc2ccc(CCC(=O)O)cc2-c2ccc3[nH]ccc3c2)c1` [Compound 175, 3-[4-(3,5-dimethylphenylmethyloxy)-3-(1H-indol-5-yl)phenyl]propionic acid], the inhibition at 0.4 µM was not below 50%.

Consider `O=C(O)CCc1ccc(OC2CCCCCC2)c(-c2ccc3[nH]ccc3c2)c1` [Compound 184, 3-[4-cycloheptyloxy-3-(1H-indol-5-yl)phenyl]propionic acid], for which the inhibition at 0.4 µM was not below 50%. The value for `O=C(O)CCc1ccc(OCc2cc(Cl)cc(Cl)c2)c(-c2ccc3[nH]ccc3c2)c1` [Compound 188, 3-[4-(3,5-dichlorophenylmethyloxy)-3-(1H-indol-5-yl)phenyl]propionic acid] was not below 50%; that for `O=C(O)CCc1ccc(OCc2ccco2)c(-c2ccc3[nH]ccc3c2)c1` [Compound 194, 3-{4-[(furan-2-yl)methyloxy]-3-(1H-indol-5-yl)phenyl}propionic acid] was not below 50%; that for `O=C(O)CCc1ccc(OCc2ccoc2)c(-c2ccc3[nH]ccc3c2)c1` [Compound 196, 3-{4-[(furan-3-yl)methyloxy]-3-(1H-indol-5-yl)phenyl}propionic acid] was not below 50%.

For `O=C(O)CCc1ccc(OCc2cccs2)c(-c2ccc3[nH]ccc3c2)c1` [Compound 198, 3-{3-(1H-indol-5-yl)-4-[(thiophen-2-yl)methyloxy]phenyl}propionic acid], the inhibition at 0.4 µM was not below 50%. In the case of `CC(C)n1ccc2cc(-c3cc(CCC(=O)O)ccc3OCC3CCCC3)ccc21` [Compound 238, 3-[4-cyclopentylmethyloxy-3-(1-isopropyl-1H-indol-5-yl)phenyl]propionic acid] it was not below 50%; in that of `CCCCn1ccc2cc(-c3cc(CCC(=O)O)ccc3OCC3CCCC3)ccc21` [Compound 240, 3-[3-(1-butyl-1H-indol-5-yl)-4-cyclopentylmethyloxyphenyl]propionic acid], not below 50%. The value for `O=C(O)CCc1ccc(OCC2CCCC2)c(-c2ccc3c(ccn3C3CCCC3)c2)c1` [Compound 242, 3-[3-(1-cyclopentyl-1H-indol-5-yl)-4-cyclopentylmethyloxyphenyl]propionic acid] was not below 50%; that for `Cc1cn(C)c2ccc(-c3cc(CCC(=O)O)ccc3OCC3CCCC3)cc12` [Compound 252, 3-[4-cyclopentylmethyloxy-3-(1,3-dimethyl-1H-indol-5-yl)phenyl]propionic acid] was not below 50%; that for `O=Cc1c[nH]c2ccc(-c3cc(CCC(=O)O)ccc3OCC3CCCC3)cc12` [Compound 254, 3-[4-cyclopentylmethyloxy-3-(3-formyl-1H-indol-5-yl)phenyl]propionic acid] was not below 50%. On to `Cn1cc(C=O)c2cc(-c3cc(CCC(=O)O)ccc3OCC3CCCC3)ccc21` [Compound 255, 3-[4-cyclopentylmethyloxy-3-(3-formyl-1-methyl-1H-indol-5-yl)phenyl]propionic acid], for which the inhibition at 0.4 µM was not below 50%. Consider `CC(=O)c1cn(C)c2ccc(-c3cc(CCC(=O)O)ccc3OCC3CCCC3)cc12` [Compound 259, 3-[3-(3-acetyl-1-methyl-1H-indol-5-yl)-4-cyclopentylmethyloxyphenyl]propionic acid], for which the inhibition at 0.4 µM was not below 50%. The value for `O=C(O)CCc1cc(Cl)c(OCC2CCCC2)c(-c2ccc3[nH]ccc3c2)c1` [Compound 263, 3-[3-chloro-4-cyclopentylmethyloxy-5-(1H-indol-5-yl)phenyl]propionic acid] was not below 50%; that for `Cn1ccc2cc(-c3cc(CCC(=O)O)cc(N)c3OCC3CCCC3)ccc21` [Compound 269, 3-[3-amino-4-cyclopentylmethyloxy-5-(1-methyl-1H-indol-5-yl)phenyl]propionic acid] was not below 50%.

Consider `Cc1[nH]c2ccc(-c3cc(CCC(=O)O)ccc3OCC3CCCCC3)cc2c1C` [Compound 273, 3-[4-cyclohexylmethyloxy-3-(2,3-dimethyl-1H-indol-5-yl)phenyl]propionic acid], for which the inhibition at 0.4 µM is not below 50%. The value for `O=C(O)CCc1ccc(OCC2CCCC2)c(-c2ccc3occc3c2)c1` [Compound 277, 3-[3-(benzo[b]furan-5-yl)-4-cyclopentylmethyloxyphenyl]propionic acid] was not below 50%.

In the case of `Cc1oc2ccc(-c3cc(CCC(=O)O)ccc3OCC3CCCCC3)cc2c1C` [Compound 279, 3-[4-cyclohexylmethyloxy-3-(2,3-dimethylbenzo[b]furan-5-yl)phenyl]propionic acid], the inhibition at 0.4 µM is not below 50%.

On to `Cc1nc2cc(-c3cc(CCC(=O)O)ccc3OCC3CCCC3)ccc2s1` [Compound 283, 3-[4-cyclopentylmethyloxy-3-(2-methylbenzothiazol-5-yl)phenyl]propionic acid], for which the inhibition at 0.4 µM was not below 50%. In the case of `Nc1nc2cc(-c3cc(CCC(=O)O)ccc3OCC3CCCC3)ccc2s1` [Compound 285, 3-[3-(2-aminobenzothiazol-5-yl)-4-cyclopentylmethyloxyphenyl]propionic acid] it was not below 50%.

`CNc1nc2ccc(-c3cc(CCC(=O)O)ccc3OCC3CCCC3)cc2s1` [Compound 297, 3-[4-cyclopentylmethyloxy-3-(2-methylaminobenzothiazol-6-yl)phenyl]propionic acid]: the inhibition at 0.4 µM is not below 50%. In the case of `Cn1c(=N)sc2cc(-c3cc(CCC(=O)O)ccc3OCC3CCCC3)ccc21` [Compound 303, 3-[4-cyclopentylmethyloxy-3-(2-imino-3-methyl-2,3-dihydrobenzothiazol-6-yl)phenyl]propionic acid] it was not below 50%; in that of `CN=c1sc2cc(-c3cc(CCC(=O)O)ccc3OCC3CCCC3)ccc2n1C` [Compound 305, 3-{4-cyclopentylmethyloxy-3-[3-methyl-2-(methylimino)-2,3-dihydrobenzothiazol-6-yl]phenyl}propionic acid], not below 50%; in that of `COc1nc2ccc(-c3cc(CCC(=O)O)ccc3OCC3CCCC3)cc2s1` [Compound 306, 3-[4-cyclopentylmethyloxy-3-(2-methoxybenzothiazol-6-yl)phenyl]propionic acid], not below 50%. The value for `Cc1nc2ccc(-c3cc(CCC(=O)O)ccc3OCC3CCCC3)cc2s1` [Compound 308, 3-[4-cyclopentylmethyloxy-3-(2-methylbenzothiazol-6-yl)phenyl]propionic acid] was not below 50%; that for `O=C(O)CCc1ccc(OCC2CCCC2)c(-c2ccc3[nH]c(=S)sc3c2)c1` [Compound 309, 3-[4-cyclopentylmethyloxy-3-(2-thioxo-2,3-dihydrobenzothiazol-6-yl)phenyl]propionic acid] was not below 50%; that for `O=C(O)CCc1ccc(OCC2CCCC2)c(-c2ccc3[nH]c(=O)sc3c2)c1` [Compound 310, 3-[4-cyclopentylmethyloxy-3-(2-oxo-2,3-dihydrobenzothiazol-6-yl)-phenyl]propionic acid] was not below 50%. In the case of `Cn1c(=O)sc2cc(-c3cc(CCC(=O)O)ccc3OCC3CCCC3)ccc21` [Compound 313, 3-[4-cyclopentylmethyloxy-3-(2-oxo-3-methyl-2,3-dihydrobenzothiazol-6-yl)phenyl]propionic acid] it was not below 50%; in that of `O=C(O)CCc1ccc(OCC2CCCC2)c(-c2cnc3ccccc3c2)c1` [Compound 315, 3-[4-cyclopentylmethyloxy-3-(quinolin-3-yl)phenyl]propionic acid], not below 50%. As for `O=C(O)CCc1ccc(OCC2CCCCC2)c(-c2ccc3ncccc3c2)c1` [Compound 319, 3-[4-cyclohexylmethyloxy-3-(quinolin-6-yl)phenyl]propionic acid], the inhibition at 0.4 µM was not below 50%. As for `O=C(O)CCc1ccc(OCC2CCCCC2)c(-c2ccc3[nH]c(=O)ccc3c2)c1` [Compound 321, 3-[4-cyclohexylmethyloxy-3-(2-oxo-1,2-dihydroquinolin-6-yl)-phenyl]propionic acid], the inhibition at 0.4 µM is not below 50%. For the compound `O=C(O)CCc1ccc(OCc2ccccc2)c(-c2ccc3ccccc3c2)c1` [Compound 323, 3-[4-benzyloxy-3-(naphthalen-2-yl)phenyl]propionic acid], the inhibition at 0.4 µM is not below 50%.

For the compound `CC(C)(C)c1ccc(COc2ccc(CCC(=O)O)cc2-c2ccc3[nH]ccc3c2)cc1` [Compound 327, 3-[4-(4-t-butylphenylmethyloxy)-3-(1H-indol-5-yl)phenyl]propionic acid], the inhibition at 0.4 µM was not below 50%.

The record behind these values is patent US6867320B2, “Substituted phenylalkanoic acid derivatives and use thereof” (Asahi Kasei Pharma Corporation, priority 2002, dated 2005).
